One assay concerns the target Cholinesterase (Homo sapiens, UniProt P06276). Description: Inhibition of BChE.
The target in the next assay is Acetylcholinesterase (Electrophorus electricus, UniProt O42275). Description: Inhibition of electric eel AChE by modified Ellman method. (In Ellman's method for cholinesterases, released thiocholine reacts with DTNB.)
Assay [1] in a line: Selectivity ratio of IC50 for electric eel AChE to IC50 for BChE.

Cholinesterase, sequence (P06276 whole entry): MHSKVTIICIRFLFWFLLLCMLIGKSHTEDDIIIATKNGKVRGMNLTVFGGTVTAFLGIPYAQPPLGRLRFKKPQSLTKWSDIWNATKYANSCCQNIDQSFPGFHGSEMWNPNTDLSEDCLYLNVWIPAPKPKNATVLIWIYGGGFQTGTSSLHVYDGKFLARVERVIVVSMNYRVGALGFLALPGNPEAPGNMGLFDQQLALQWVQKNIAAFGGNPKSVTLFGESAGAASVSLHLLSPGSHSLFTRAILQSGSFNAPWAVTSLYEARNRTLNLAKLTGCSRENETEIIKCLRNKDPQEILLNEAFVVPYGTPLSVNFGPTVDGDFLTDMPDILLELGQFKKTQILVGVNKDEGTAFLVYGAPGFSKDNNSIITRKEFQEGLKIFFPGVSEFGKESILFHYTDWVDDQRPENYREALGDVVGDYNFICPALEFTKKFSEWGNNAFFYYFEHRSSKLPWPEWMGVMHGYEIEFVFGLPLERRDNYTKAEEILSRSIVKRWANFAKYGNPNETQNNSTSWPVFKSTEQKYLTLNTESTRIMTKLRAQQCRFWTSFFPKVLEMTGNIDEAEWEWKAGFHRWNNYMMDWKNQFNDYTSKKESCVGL
Acetylcholinesterase, sequence (O42275 whole entry): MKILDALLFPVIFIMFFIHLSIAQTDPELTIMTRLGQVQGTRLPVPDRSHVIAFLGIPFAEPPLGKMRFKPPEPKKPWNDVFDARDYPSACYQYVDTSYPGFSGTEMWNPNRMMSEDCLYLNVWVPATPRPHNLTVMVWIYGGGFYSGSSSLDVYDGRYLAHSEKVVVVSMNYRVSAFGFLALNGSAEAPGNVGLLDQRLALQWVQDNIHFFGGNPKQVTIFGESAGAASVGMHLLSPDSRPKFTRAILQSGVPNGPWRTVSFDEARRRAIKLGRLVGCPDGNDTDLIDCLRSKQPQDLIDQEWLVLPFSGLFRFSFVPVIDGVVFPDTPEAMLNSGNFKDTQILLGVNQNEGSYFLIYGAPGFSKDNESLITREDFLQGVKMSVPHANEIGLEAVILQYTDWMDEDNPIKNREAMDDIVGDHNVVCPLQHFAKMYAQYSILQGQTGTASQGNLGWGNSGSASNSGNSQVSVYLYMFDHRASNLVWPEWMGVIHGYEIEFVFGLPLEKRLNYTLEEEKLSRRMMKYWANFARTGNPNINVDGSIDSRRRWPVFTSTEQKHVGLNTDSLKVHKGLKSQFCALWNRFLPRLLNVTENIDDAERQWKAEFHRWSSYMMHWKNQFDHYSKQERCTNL

For `C[C@@H]([C@H]1CC[C@@]2(C)[C@@H]3CC[C@H]4C(C)(C)[C@@H](NC(=O)c5ccccc5)CC[C@]4(O)CC3=CC[C@]12C)N(C)C` [N-BENZOYLBUXAHYRCANINE], the values for the IC50 on Cholinesterase and against Acetylcholinesterase were 311 µM and > 1000 µM, respectively. Moreover, the Ratio IC50 in assay [1] was found to be 3.2.

In the case of `CC(C)C(=O)N[C@H]1CC[C@]2(O)CC3=CC[C@]4(C)[C@@H]([C@H](C)N(C)C)CC[C@@]4(C)[C@@H]3CC[C@H]2C1(C)C` [N-ISOBUTYROYLBUXAHYRCANINE], the IC50 at Cholinesterase is 53.7 µM; against Acetylcholinesterase, > 1000 µM. Besides, the Ratio IC50 in assay [1] was 18.6.

In the case of `C/C=C(\C)C(=O)N[C@H]1CC[C@]2(O)CC3=CC[C@]4(C)[C@@H]([C@H](C)N(C)C)CC[C@@]4(C)[C@@H]3CC[C@H]2C1(C)C` [N-TIGLOYLBUXAHYRCANINE], the IC50 turned out to be 31.2 µM at Cholinesterase and 444 µM against Acetylcholinesterase. The Ratio IC50 in assay [1] is 14.2.

For orientation: IC50 means the concentration that inhibits the measured activity by half.

The values are drawn from ChEMBL document CHEMBL1146525, “New triterpenoid alkaloid cholinesterase inhibitors from Buxus hyrcana” (J Nat Prod, 2003).
